{"source": "patent US20240115572A1", "about": "“METHODS FOR TREATING GLIOBLASTOMAS WITH SEPIAPTERIN” (priority 2021, published 2024)", "key": {"[1]": {"tested_on": "Orthotopic glioblastoma tumors, nude (U87) mouse model", "assay": "Survival of nude mice with orthotopic U87 glioblastoma tumors, sepiapterin plus radiation", "assay_type": "in vivo", "description": "Orthotopic glioblastoma tumors were established in nude (U87) and syngeneic (GL261) mouse models on Day 0 (N=13/group). Starting on Day 6 in the U87 mouse model, sepiapterin (SP) was orally administered for either 6 days (10 mg/kg sepiapterin) or daily (1 mg/kg sepiapterin) until end of experiment (60 days). Starting on Day 6 in the GL261 mouse model, SP was orally administered daily (10 mg/kg) until the end of experiment (60 days). Radiation (IR) (5 fxs of 2 Gy) with 3D treatment planning and delivery was started on Day 13, ending on Day 17."}, "Orthotopic GL261 tumors": {"tested_on": "Orthotopic GL261 tumors", "assay": "Survival of mice with orthotopic GL261 tumors, temozolomide with or without sepiapterin", "assay_type": "in vivo, mouse", "details": "10 mg/kg SP orally from day 7 until end of study + 60 mg/kg TMZ for 5 days", "description": "Orthotopic GL261 tumors were established on Day 0. Starting on Day 7 mice were treated with 60 mg/kg temozolomide (TMZ) for 5 days+/−10 mg/kg SP given orally from day 7 until the end of the study. […] Future animal studies will combine with fractionated radiotherapy."}, "[2]": {"tested_on": "adult female C57BL/6J mice", "assay": "Novel object recognition (NOR) test after brain irradiation", "assay_type": "in vivo, mouse", "from_the_text": "The novel object recognition test is a behavioral test in which a mouse is allowed to explore two similar objects during the first (training) session, and then after a certain length of time, one of the two training objects is replaced by a new object during a later (test) session. Because mice have an innate preference for novelty, if the mouse recognizes the familiar object, it will spend most of its time at the novel object. The amount of time taken to explore the new object provides a measure of recognition memory. 24 adult female C57BL/6J mice were treated as follows: (1) 8 mice were irradiated (IR) with 10 Gy total dose, divided into three fractions with a “rest” day in between fractions, covering about a 1 mm square over the center of the head; (2) 8 mice were similarly irradiated, and also treated with 10 mg/kg/day sepiapterin (SP), administered as oral gavage, starting on day 1 of IR to 6 days beyond last radiation fraction (i.e. 11 days total); (3) 8 mice were untreated naïve. 1 month following treatment, mice were tested in the novel object recognition (NOR) task with an hour inter-trial interval (ITI) to assess hippocampal mediated memory (i.e. the test occurred one hour after training). In both training and test phases, time investigating objects was measured for 5 minutes. Two independent observers were used to evaluate. The Discrimination Index=(novel−familiar)/(novel+familiar)."}}, "data": [{"smiles": "C[C@H](O)C(=O)C1=Nc2c(nc(N)[nH]c2=O)NC1", "note": "[sepiapterin, (S)-2-amino-6-(2-hydroxypropanoyl)-7,8-dihydropteridin-4(3H)-one]", "values": [{"measurement": "Survival vs control group", "setting": "[1]; 1 mg/kg oral continuously (daily from Day 6 to day 60) + IR, vs control", "result": "significantly different"}, {"measurement": "Survival vs all other groups (Control, IR alone, and 10 mg/kg for 6d)", "setting": "[1]; 1 mg/kg oral continuously + IR", "result": "significantly different from all other groups"}, {"measurement": "Survival vs control group", "setting": "[1]; 10 mg/kg oral for 6d from Day 6 + IR (5 fxs of 2 Gy, Day 13-17), vs control (no IR or SP)", "result": "significantly different"}, {"measurement": "Survival vs IR alone group", "setting": "[1]; 10 mg/kg oral for 6d from Day 6 + IR, vs IR alone", "result": "did not achieve statistical significance"}, {"measurement": "Survival vs TMZ alone", "setting": "Orthotopic GL261 tumors", "result": "improved survival"}, {"measurement": "Discrimination Index compared with irradiated-only group", "setting": "[2]; 10 Gy IR in three fractions + 10 mg/kg/day oral gavage for 11 days, NOR 1 month after treatment, 1 h ITI", "result": "increased"}, {"measurement": "NOR Discrimination Index, Mean", "setting": "[2]; IR 10 Gy + 10 mg/kg/day sepiapterin, N=8, 1 month after treatment, (novel−familiar)/(novel+familiar)", "result": 0.262}, {"measurement": "Diff of Means of Discrimination Index, IR + drug vs. IR", "setting": "[2]; Tukey test, P 0.331, P < 0.050: No", "result": 0.135}, {"measurement": "Diff of Means of Discrimination Index, Naïve vs. IR + drug", "setting": "[2]; Tukey test, P 0.475, P < 0.050: No", "result": 0.110}]}]}
